Test results reported in the supplement of paper PMC11061612.

Key:
Carboplatin = compound: C1CC(C1)(C(=O)[O-])C(=O)[O-].N.N.[Pt+2] [Carboplatin]; conditions: max 10 µM
Procedure, shortened: (§1)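 Following 24 hours at 37°C and 5% CO2, cancer cell lines in 1536-well plates with 7.5 μl DMEM/F12 or RPMI and 10% FBS were dosed for 72 hours, final DMSO typically being 0.2%. CellTiter-Glo 2.0 luminescence, scaled between blank-well and DMSO-well means, gave the viability readout. Dose responses were fitted to a two-parameter logistic curve with a non-linear mixed effects model, and the single-agent IC50 was derived from this fit.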

AZD5363 = compound: C1CN(CCC1(C(=O)N[C@@H](CCO)C2=CC=C(C=C2)Cl)N)C3=NC=NC4=C3C=CN4 [AZD5363]; conditions: max 10 µM
Procedure, shortened: as §1

AZD1775 = compound: C=CCn1c(=O)c2cnc(Nc3ccc(N4CCN(C)CC4)cc3)nc2n1-c1cccc(C(C)(C)O)n1 [AZD1775]; conditions: max 3 µM
Procedure, shortened: as §1

Trametinib = compound: CC(=O)Nc1cccc(-n2c(=O)n(C3CC3)c(=O)c3c(Nc4ccc(I)cc4F)n(C)c(=O)c(C)c32)c1 [Trametinib]; conditions: max 1 µM
Procedure, shortened: as §1

Paclitaxel = compound: CC(=O)O[C@H]1C(=O)[C@@]2(C)[C@H]([C@H](OC(=O)c3ccccc3)[C@]3(O)C[C@H](OC(=O)[C@H](O)[C@@H](NC(=O)c4ccccc4)c4ccccc4)C(C)=C1C3(C)C)[C@]1(OC(C)=O)CO[C@@H]1C[C@@H]2O [Paclitaxel]; conditions: max 3 µM
Procedure, shortened: as §1

Palbociclib = compound: CC(=O)c1c(C)c2cnc(Nc3ccc(N4CCNCC4)cn3)nc2n(C2CCCC2)c1=O [Palbociclib]; conditions: max 10 µM
Procedure, shortened: as §1

AZD1390 = compound: CC(C)n1c(=O)n(C)c2cnc3cc(F)c(-c4ccc(OCCCN5CCCCC5)nc4)cc3c21 [AZD1390]; conditions: max 0.3 µM
Procedure, shortened: as §1

Venetoclax = compound: CC1(C)CCC(CN2CCN(c3ccc(C(=O)NS(=O)(=O)c4ccc(NCC5CCOCC5)c([N+](=O)[O-])c4)c(Oc4cnc5[nH]ccc5c4)c3)CC2)=C(c2ccc(Cl)cc2)C1 [Venetoclax]; conditions: max 1 µM
Procedure, shortened: as §1

Dasatinib = compound: CC1=C(C(=CC=C1)Cl)NC(=O)C2=CN=C(S2)NC3=CC(=NC(=N3)C)N4CCN(CC4)CCO [Dasatinib]; conditions: max 2 µM
Procedure, shortened: as §1

SG3199 = compound: CC1=CN2[C@@H](C1)C=NC3=CC(=C(C=C3C2=O)OC)OCCCCCOC4=C(C=C5C(=C4)N=C[C@@H]6CC(=CN6C5=O)C)OC [SG3199]; conditions: max 0.001 µM
Procedure, shortened: as §1

AZD2811 = compound: CCN(CCO)CCCOc1ccc2c(Nc3cc(CC(=O)Nc4cccc(F)c4)[nH]n3)ncnc2c1 [AZD2811]; conditions: max 1 µM
Procedure, shortened: as §1

SN-38 = compound: CCc1c2c(nc3ccc(O)cc13)-c1cc3c(c(=O)n1C2)COC(=O)[C@]3(O)CC [SN-38]; conditions: max 0.3 µM
Procedure, shortened: as §1

AZD0156 = compound: CN(C)CCCOc1ccc(-c2ccc3ncc4c(c3c2)n(C2CCOCC2)c(=O)n4C)cn1 [AZD0156]; conditions: max 3 µM
Procedure, shortened: as §1

AZD4320 = compound: CN(CC[C@H](CSC1=CC=CC=C1)NC2=C(C=C(C=C2)S(=O)(=O)NC(=O)C3=CC=C(C=C3)N4CCC(CC4)[C@H](C5=CC=CC=C5C6=CC=C(C=C6)Cl)O)S(=O)(=O)C(F)(F)F)CCO [AZD4320]; conditions: max 1 µM
Procedure, shortened: as §1

Alisertib = compound: COc1cc(Nc2ncc3c(n2)-c2ccc(Cl)cc2C(c2c(F)cccc2OC)=NC3)ccc1C(=O)O [Alisertib]; conditions: max 10 µM
Procedure, shortened: as §1

Etoposide = compound: COc1cc([C@@H]2c3cc4c(cc3[C@@H](O[C@@H]3O[C@@H]5CO[C@@H](C)O[C@H]5[C@H](O)[C@H]3O)[C@H]3COC(=O)[C@H]23)OCO4)cc(OC)c1O [Etoposide]; conditions: max 10 µM
Procedure, shortened: as §1

Gefitinib = compound: COc1cc2ncnc(Nc3ccc(F)c(Cl)c3)c2cc1OCCCN1CCOCC1 [Gefitinib]; conditions: max 10 µM
Procedure, shortened: as §1

Prexasertib = compound: COc1cccc(OCCCN)c1-c1cc(Nc2cnc(C#N)cn2)n[nH]1 [Prexasertib]; conditions: max 1 µM
Procedure, shortened: as §1

Doxorubicin = compound: COc1cccc2c1C(=O)c1c(O)c3c(c(O)c1C2=O)C[C@@](O)(C(=O)CO)C[C@@H]3O[C@H]1C[C@H](N)[C@H](O)[C@H](C)O1 [Doxorubicin]; conditions: max 1 µM
Procedure, shortened: as §1

AZD5153 = compound: COc1nnc2ccc(N3CCC(c4ccc(OCCN5CCN(C)C(=O)[C@H]5C)cc4)CC3)nn12 [AZD5153]; conditions: max 1 µM
Procedure, shortened: as §1

Lapatinib = compound: CS(=O)(=O)CCNCc1ccc(-c2ccc3ncnc(Nc4ccc(OCc5cccc(F)c5)c(Cl)c4)c3c2)o1 [Lapatinib]; conditions: max 10 µM
Procedure, shortened: as §1

AZD8186 = compound: C[C@@H](Nc1cc(F)cc(F)c1)c1cc(C(=O)N(C)C)cc2c(=O)cc(N3CCOCC3)oc12 [AZD8186]; conditions: max 10 µM
Procedure, shortened: as §1

Crizotinib = compound: C[C@@H](Oc1cc(-c2cnn(C3CCNCC3)c2)cnc1N)c1c(Cl)ccc(F)c1Cl [Crizotinib]; conditions: max 10 µM
Procedure, shortened: as §1

Savolitinib = compound: C[C@@H](c1ccc2nccn2c1)n1nnc2ncc(-c3cnn(C)c3)nc21 [Savolitinib]; conditions: max 1 µM
Procedure, shortened: as §1

AZD6738 = compound: C[C@@H]1COCCN1C2=NC(=NC(=C2)C3(CC3)[S@](=N)(=O)C)C4=C5C=CNC5=NC=C4 [AZD6738]; conditions: max 10 µM
Procedure, shortened: as §1

AZD5991 = compound: Cc1c2c(nn1C)CSCc1cc(n(C)n1)CSc1cc(c3ccccc3c1)OCCCc1c(C(=O)O)n(C)c3c-2c(Cl)ccc13 [AZD5991]; conditions: max 1 µM
Procedure, shortened: as §1

AZD7648 = compound: Cc1cc2ncnn2cc1Nc1ncc2c(n1)n(C1CCOCC1)c(=O)n2C [AZD7648]; conditions: max 10 µM
Procedure, shortened: as §1

Taselisib = compound: Cc1nc(-c2cn3c(n2)-c2ccc(-c4cnn(C(C)(C)C(N)=O)c4)cc2OCC3)n(C(C)C)n1 [Taselisib]; conditions: max 10 µM
Procedure, shortened: as §1

Selumetinib = compound: Cn1cnc2c(F)c(Nc3ccc(Br)cc3Cl)c(C(=O)NOCCO)cc21 [Selumetinib]; conditions: max 10 µM
Procedure, shortened: as §1

SRA737 = compound: N#Cc1cnc(Nc2cc(NC[C@H]3CNCCO3)c(C(F)(F)F)cn2)cn1 [SRA737]; conditions: max 10 µM
Procedure, shortened: as §1

MK-2206 = compound: NC1(c2ccc(-c3nc4ccn5c(=O)[nH]nc5c4cc3-c3ccccc3)cc2)CCC1 [MK-2206]; conditions: max 10 µM
Procedure, shortened: as §1

Gemcitabine = compound: Nc1ccn([C@@H]2O[C@H](CO)[C@@H](O)C2(F)F)c(=O)n1 [Gemcitabine]; conditions: max 0.3 µM
Procedure, shortened: as §1

[1] = compound: O=C(Nc1ccc2[nH]nc(-c3ccncc3)c2c1)[C@@H]1CCN(CC(=O)N2CCN(c3ccc(-c4ncccn4)cc3)CC2)C1; conditions: max 5 µM
Procedure, shortened: as §1

Olaparib = compound: O=C(c1cc(Cc2n[nH]c(=O)c3ccccc23)ccc1F)N1CCN(C(=O)C2CC2)CC1 [Olaparib]; conditions: max 10 µM
Procedure, shortened: as §1

5-Fluorouracil = compound: O=c1[nH]cc(F)c(=O)[nH]1 [5-Fluorouracil]; conditions: max 20 µM
Procedure, shortened: as §1

Cell Line | IC50, cell viability 72 h (Carboplatin) | IC50, cell viability 72 h (AZD5363) | IC50, cell viability 72 h (AZD1775) | IC50, cell viability 72 h (Trametinib) | IC50, cell viability 72 h (Paclitaxel) | IC50, cell viability 72 h (Palbociclib) | IC50, cell viability 72 h (AZD1390) | IC50, cell viability 72 h (Venetoclax) | IC50, cell viability 72 h (Dasatinib) | IC50, cell viability 72 h (SG3199) | IC50, cell viability 72 h (AZD2811) | IC50, cell viability 72 h (SN-38) | IC50, cell viability 72 h (AZD0156) | IC50, cell viability 72 h (AZD4320) | IC50, cell viability 72 h (Alisertib) | IC50, cell viability 72 h (Etoposide) | IC50, cell viability 72 h (Gefitinib) | IC50, cell viability 72 h (Prexasertib) | IC50, cell viability 72 h (Doxorubicin) | IC50, cell viability 72 h (AZD5153) | IC50, cell viability 72 h (Lapatinib) | IC50, cell viability 72 h (AZD8186) | IC50, cell viability 72 h (Crizotinib) | IC50, cell viability 72 h (Savolitinib) | IC50, cell viability 72 h (AZD6738) | IC50, cell viability 72 h (AZD5991) | IC50, cell viability 72 h (AZD7648) | IC50, cell viability 72 h (Taselisib) | IC50, cell viability 72 h (Selumetinib) | IC50, cell viability 72 h (SRA737) | IC50, cell viability 72 h (MK-2206) | IC50, cell viability 72 h (Gemcitabine) | IC50, cell viability 72 h [1] | IC50, cell viability 72 h (Olaparib) | IC50, cell viability 72 h (5-Fluorouracil)
NCI-H1666 (Lung Adenocarcinoma) | > 10000 nM | > 10000 nM | > 3000 nM | 103 nM | 794 nM | > 10000 nM | > 300 nM | > 1000 nM | > 2000 nM | > 1 nM | > 1000 nM | 238 nM | > 3000 nM | > 1000 nM | > 10000 nM | > 10000 nM | > 10000 nM | > 1000 nM | > 1000 nM | > 1000 nM | > 10000 nM | > 10000 nM | > 10000 nM | > 1000 nM | > 10000 nM | > 1000 nM | > 10000 nM | 3200 nM | 7170 nM | > 10000 nM | > 10000 nM | > 300 nM | > 5000 nM | > 10000 nM | > 20000 nM
NCI-H64 (Small Cell Lung Carcinoma) | > 10000 nM | > 10000 nM | 236 nM | > 1000 nM | 527 nM | > 10000 nM | > 300 nM | > 1000 nM | > 2000 nM | > 1 nM | 597 nM | > 300 nM | > 3000 nM | 230 nM | 4900 nM | > 10000 nM | > 10000 nM | 19.6 nM | > 1000 nM | > 1000 nM | > 10000 nM | > 10000 nM | 5170 nM | > 1000 nM | 3170 nM | > 1000 nM | > 10000 nM | > 10000 nM | > 10000 nM | 3840 nM | > 10000 nM | > 300 nM | > 5000 nM | > 10000 nM | > 20000 nM
IGR-37 (Melanoma) | > 10000 nM | > 10000 nM | 846 nM | 3.42 nM | 86.5 nM | > 10000 nM | > 300 nM | > 1000 nM | > 2000 nM | > 1 nM | > 1000 nM | 26.2 nM | > 3000 nM | > 1000 nM | > 10000 nM | > 10000 nM | > 10000 nM | 12.9 nM | 746 nM | 846 nM | > 10000 nM | > 10000 nM | > 10000 nM | > 1000 nM | 5360 nM | > 1000 nM | > 10000 nM | 4360 nM | 339 nM | 3480 nM | > 10000 nM | 45.9 nM | 361 nM | > 10000 nM | > 20000 nM
